Marks after values point to notes of the source that are not given here.
Assays:
sound-sensitive mice = assay: Rotarod test in sound-sensitive mice; conditions: combined treatment with 5.5 mg/kg levetiracetam
[1] = test system: diabetic rats (streptozocin-induced diabetic neuropathy); assay: Randall and Selitto test, mechanical hyperalgesia in streptozotocin diabetic rats; format: in vivo, rat
Source text: In order to study the activity of levetiracetam with respect to chronic or neuropathic pain, the Applicant carried out a series of experiments based on the Randall test “A method for measurement of analgesic activity on inflamed tissue; Arch. Int. pharmacodyn., 1957, CXI, No4. P 409-419”. By virtue of this protocol, it was possible to determine the ability of levetiracetam to correct hyperalgesia secondary to induction of a neuropathic problem of metabolic origin in a rodent.
The diabetic neuropathy thereby induced allowed the correction of the hyperalgesia caused by the use of levetiracetam to be measured.
The animals used for these experiments were male Sprague-Dawley rats (Charles River, France), weighing 250-280 grams (g), which had undergone induction of diabetes one week after receipt. Male Sprague-Dawley rats (200-220 g) received one interperitoneal injection of streptozocin (75 mg/kg, i.p.) (Zanosar, Upjohn, France) dissolved in distilled water. Hyperglycaemia was confirmed one week after induction by determining the quantity of blood glucose (caudal puncture) using a Dextrostix reactive strip (Ames) read using a calorimeter (Ames Division, Miles Laboratoires, France). Animals with more than 14 millimoles (mM) were considered to be diabetic. The pain thresholds were determined 3 weeks after induction of diabetes.
This model was used in accordance with the description in COURTEIX et al., “Streptozocin-induced diabetic rats. Behavioural evidence for a model of chronic pain” Pain (1993), vol. 53, p81-88. The study was performed using the following compounds: • […]: (Laboratories UCB), dissolved in distilled water. • CARBAMAZEPINE: (Sigma), dissolved in hydroxy propel methylcellulose.
As has already been mentioned above, the test explained below was performed to stimulate a reaction in the animal with a mechanical nociceptive stimulus to a hind paw. An increasing pressure was applied using an analgesia meter (Ugo Basile, type 7200), until a cry was emitted which was considered to be the pain threshold, expressed in grams.
After determining the base thresholds, the animals received the study treatments (vehicle, levetiracetam, 17, 54, 95.2 and 120 mg/kg, carbamazepine, 10 and 30 mg/kg) administered intraperitoneally (i.p.) using the equal block method to avoid any chronobiological influence. The effects of different treatments were thus determined during the same time period. The reaction thresholds were measured 15, 30, 45, 60, 90, 120 and 180 minutes (min) after administration. All of the experiments were performed blind with 8 different animals per treatment.
The results are expressed as means±standard error of mean (S.E.M.).
The dose which could overcome 50% of the hyperalgesia induced by diabetes was calculated as the “anti-hyperalgesic dose effective 50”.
Statistical comparison was carried out by means of a two-way analysis of variance followed by Fischer's PLSD multiple comparison test to analyze the temporal effect.

[2] = Plasma and brain levels after oral dosing in sound-sensitive mice; conditions: alone or in combination with levetiracetam
Experimental: Male genetically sound-sensitive mice (17-30 g; N=10), derived from a DBA strain originally selected by Dr Lehmann of the Laboratory of Acoustic Physiology (Paris) and bred in the UCB Pharma Sector husbandry unit since 1978, were submitted to the induction of audiogenic seizures. Levetiracetam (5.4 mg/kg) and sodium valproate (166.2 mg/kg) were administered orally, alone or in combination, 60 minutes before the induction of audiogenic seizures. For testing audiogenic seizure, the mice were placed in the cages, one mouse per cage, in the sound-attenuated chamber. After a period of habituation of 30 seconds, the acoustic stimulus (90 dB, 10-20 kHz) was delivered for 30 seconds via the loud speakers. During this interval, the mice were observed and the presence of the 3 phases of the seizure activity, namely wild running, clonic and tonic convulsions, was recorded.
In all animals, blood samples were collected immediately after the seizure test (I h after dosing) by cardiac puncture under light carbon dioxide anesthesia, into heparinised microtubes. […] Levetiracetam was measured in plasma and brain samples by validated gas chromatography assay with mass detection. With sodium valproate, fluorescence polarization immunoassays were used.
The mean value plus standard deviation was calculated for plasma and brain concentrations of valproate and levetiracetam, and for the brain/plasma ratio. […]

epilepsy = conditions: in vivo; cited from earlier work

O=C1CN=C(c2ccccc2Cl)c2cc([N+](=O)[O-])ccc2N1 [clonazepam]
impairment of rotarod performance under combined treatment (in words) (sound-sensitive mice): not affected

CNC1=Nc2ccc(Cl)cc2C(c2ccccc2)=[N+]([O-])C1 [chlordiazepoxide]
impairment of rotarod performance under combined treatment (in words) (sound-sensitive mice): not affected

NC(=O)N1c2ccccc2C=Cc2ccccc21 [Carbamazepine, reference compound]
vocalization threshold ([1]; carbamazepine 10 mg/kg i.p. group, before diabetes (baseline), mean (SEM)): 300.9 (12.31) g | vocalization threshold ([1]; carbamazepine 10 mg/kg i.p., 15 min after injection): 217.5 g | vocalization threshold ([1]; carbamazepine 10 mg/kg i.p., 30 min after injection): 333.8 (14.66)* g | vocalization threshold ([1]; carbamazepine 10 mg/kg i.p., 45 min after injection): 273.8 g | vocalization threshold ([1]; carbamazepine 10 mg/kg i.p., 60 min after injection): 206.3 (10.51)* g | vocalization threshold ([1]; carbamazepine 10 mg/kg i.p., 90 min after injection): 187.5 (8.02) g | vocalization threshold ([1]; carbamazepine 10 mg/kg i.p., 120 min after injection): 174.4 (3.95) g | vocalization threshold ([1]; carbamazepine 10 mg/kg i.p., 180 min after injection): 174.4 (3.95) g | vocalization threshold ([1]; carbamazepine 10 mg/kg i.p., after diabetes, 0 min (base threshold)): 170.6 (5.26) g | vocalization threshold ([1]; carbamazepine 30 mg/kg i.p. group, before diabetes (baseline), mean (SEM)): 280.3 (9.92) g | vocalization threshold ([1]; carbamazepine 30 mg/kg i.p., 15 min after injection): 450.0 g | vocalization threshold ([1]; carbamazepine 30 mg/kg i.p., 30 min after injection): 425.6 (39.98)* g | vocalization threshold ([1]; carbamazepine 30 mg/kg i.p., 45 min after injection): 311.3 g | vocalization threshold ([1]; carbamazepine 30 mg/kg i.p., 60 min after injection): 230.6 (24.86)* g | vocalization threshold ([1]; carbamazepine 30 mg/kg i.p., 90 min after injection): 196.9 g | vocalization threshold ([1]; carbamazepine 30 mg/kg i.p., 120 min after injection): 174.4 (7.99) g | vocalization threshold ([1]; carbamazepine 30 mg/kg i.p., 180 min after injection): 170.6 (6.30) g | vocalization threshold ([1]; carbamazepine 30 mg/kg i.p., after diabetes, 0 min (base threshold)): 152.8 (8.01) g | spontaneous motor activity (not quantified) ([1]; carbamazepine 30 mg/kg i.p., delayed effect, 30 min after injection): reduction in spontaneous motor activity | Effect on diabetic hyperalgesia (in words) ([1]; i.p., diabetic rats): complete reversal of diabetic hyperalgesia for the 2 doses used

CCC1(c2ccccc2)C(=O)NC(=O)NC1=O [phenobarbital, reference compound]
plasma concentrations and brain/plasma ratio alone vs in combination with levetiracetam (in words) [2]: unchanged | impairment of rotarod performance under combined treatment (in words) (sound-sensitive mice): not affected

CC[C@H](C(N)=O)N1CCCC1=O [(R)-(−)-α-ethyl-2-oxo-1-pyrrolidine-acetamide]
activity in the treatment of epilepsy (in words) (epilepsy): completely devoid of activity
